{
  "source": "patent US20160296511A1",
  "about": "“LAQUINIMOD FOR REDUCING THALAMIC DAMAGE IN MULTIPLE SCLEROSIS” (Teva Pharmaceutical Industries, Ltd., priority 2012, published 2016)",
  "key": {"subjects with RRMS [1]": {"system": "subjects with RRMS", "assay": "ALLEGRO sub-study: WM, GM and thalamic volume analysis (3D T1-weighted MRI)", "type": "in vivo, human", "conditions": "for Grey matter fraction, % change, median (range) / Thalamic fraction, % change, LS mean (SE) / White matter fraction, % change, median (range): laquinimod 0.6 mg/day oral; for Grey matter fraction, treatment effect (Hodges-Lehmann median estimate for treatment difference) / Thalamic fraction, treatment effect (LS mean difference) / White matter fraction, treatment effect (Hodges-Lehmann median estimate for treatment difference): laquinimod vs placebo; for Treatment effect of laquinimod on thalamic fraction: patients with thalamic lesions at baseline", "experimental": "WM, GM, and thalamic volumes were derived from 3D T1-weighted images at baseline and at months 12 and 24. Patients with baseline and at least one valid scheduled post-baseline MRI were included in the analysis. Patients with thalamic lesions at baseline and a valid post-baseline MRI were included in the thalamic lesion analysis. Longitudinal WM and GM volume changes were calculated as the percentage difference from baseline to months 12 and 24. A separate calculation was performed between months 12 and 24. […] The ANCOVA (SAS® PROC GLM) model used treatment group, baseline value of the outcome, number of GdE lesions at baseline and country/geographic region, as covariates. Additionally, analyses of percentage changes in WM volume were also adjusted for GM volume at baseline due to the imbalance that was found between treatment groups at baseline. The Hodges-Lehmann (HL) large sample median estimator associated with the ranked values analysis approach was used to construct two-sided 95% confidence limits for the difference in treatment effects. Percent thalamic volume changes from baseline to months 12 and 24 followed normal distribution and thus were analysed using a parametric MMRM (SAS® PROC MIXED) model corrected for baseline thalamic volume, number of baseline GdE lesions, country/geographic region, visit, treatment and visit by treatment interaction. The least square (LS) mean difference was used to estimate treatment effect. As noted for the % change in WM and GM volumes, percent thalamic volume change from month 12 to month 24 was analyzed using a separate analysis of covariance (ANCOVA) (SAS® PROC GLM) model, since these values […] from the MMRM model. The ANCOVA model used treatment group, baseline thalamic volume, number of baseline GdE lesions and country/geographic region, as covariates. GM at baseline was used as an additional covariate to account for between treatment group imbalance in this measure at baseline."}, "subjects with RRMS [2]": {"system": "subjects with RRMS", "assay": "ALLEGRO sub-study: 1H-MRS, NAA/Cr ratio in WM", "type": "in vivo, human", "conditions": "at 24 months; difference vs placebo not statistically significant (p=0.179), N=27", "experimental": "• 1. Frequent MRI (selected countries and sites only): The cumulative number of T1-Gd enhancing lesions taken from scans obtained at months 0, 3, 6, 12, and 24, and in case the study is be extended, 30. Additional MRIs for the ancillary study are performed at months 3 and 6. • 2. Magnetization Transfer (MT) (selected countries and sites only): the change from baseline to month 12 and 24/30 months in magnetization transfer MRI. MT was assessed at months 0 (baseline), 12 and 24 (termination/early discontinuation). In case of the 6 months extended study, the last MT was performed at month 30 (termination/early discontinuation of the extended study) instead of month 24. • 3. Proton MR Spectroscopy (^1H-MRS) (selected countries and sites only): Change from baseline to 24/30 in ^1H-MRS metabolites. ^1H-MRS was assessed at months 0 (baseline), and 24 (termination/early discontinuation). In case of the 6 months extended study, the last ^1H-MRS was performed at month 30 (termination/early discontinuation of the extended study) instead of month 24. • 4. Pharmacogenetic (PGx) assessment: Blood samples for PGx parameters were collected from all subjects at screening. • 5. […] Changes in NAA/Cr from baseline to month 24 was analyzed using ANCOVA."}},
  "note": "Marks after values point to notes of the source that are not given here.",
  "data": [
    {"compound": "CCN(C(=O)c1c(O)c2c(Cl)cccc2n(C)c1=O)c1ccccc1", "note": "[Laquinimod]", "values": [
      {"measurement": "Grey matter fraction, % change, median (range)", "setting": "subjects with RRMS [1]; baseline to month 12", "value": "−0.3 (−19.4 to 22.4) %"},
      {"measurement": "Thalamic fraction, % change, LS mean (SE)", "setting": "subjects with RRMS [1]; baseline to month 12", "value": "−0.6 (0.12) %"},
      {"measurement": "White matter fraction, % change, median (range)", "setting": "subjects with RRMS [1]; baseline to month 12", "value": "0.0 (−24.7 to 11.9) %"},
      {"measurement": "Grey matter fraction, treatment effect (Hodges-Lehmann median estimate for treatment difference)", "setting": "subjects with RRMS [1]; baseline to month 12", "value": "0.502* %"},
      {"measurement": "Thalamic fraction, treatment effect (LS mean difference)", "setting": "subjects with RRMS [1]; baseline to month 12", "value": "0.408^† %"},
      {"measurement": "White matter fraction, treatment effect (Hodges-Lehmann median estimate for treatment difference)", "setting": "subjects with RRMS [1]; baseline to month 12", "value": "0.394* %"},
      {"measurement": "Grey matter fraction, % change, median (range)", "setting": "subjects with RRMS [1]; baseline to month 24", "value": "−0.9 (−17.4 to 21.2) %"},
      {"measurement": "Thalamic fraction, % change, LS mean (SE)", "setting": "subjects with RRMS [1]; baseline to month 24", "value": "−1.3 (0.15) %"},
      {"measurement": "White matter fraction, % change, median (range)", "setting": "subjects with RRMS [1]; baseline to month 24", "value": "−0.3 (−27.3 to 19.2) %"},
      {"measurement": "Grey matter fraction, treatment effect (Hodges-Lehmann median estimate for treatment difference)", "setting": "subjects with RRMS [1]; baseline to month 24", "value": "0.372* %"},
      {"measurement": "Thalamic fraction, treatment effect (LS mean difference)", "setting": "subjects with RRMS [1]; baseline to month 24", "value": "0.60^† %"},
      {"measurement": "White matter fraction, treatment effect (Hodges-Lehmann median estimate for treatment difference)", "setting": "subjects with RRMS [1]; baseline to month 24", "value": "0.327* %"},
      {"measurement": "Grey matter fraction, % change, median (range)", "setting": "subjects with RRMS [1]; month 12 to month 24", "value": "−0.7 (−11.5 to 16.6) %"},
      {"measurement": "Thalamic fraction, % change, LS mean (SE)", "setting": "subjects with RRMS [1]; month 12 to month 24", "value": "−0.7 (0.13) %"},
      {"measurement": "White matter fraction, % change, median (range)", "setting": "subjects with RRMS [1]; month 12 to month 24", "value": "−0.2 (−15.3 to 15.0) %"},
      {"measurement": "Grey matter fraction, treatment effect (Hodges-Lehmann median estimate for treatment difference)", "setting": "subjects with RRMS [1]; month 12 to month 24", "value": "−0.078* %"},
      {"measurement": "Thalamic fraction, treatment effect (LS mean difference)", "setting": "subjects with RRMS [1]; month 12 to month 24", "value": "0.233^† %"},
      {"measurement": "White matter fraction, treatment effect (Hodges-Lehmann median estimate for treatment difference)", "setting": "subjects with RRMS [1]; month 12 to month 24", "value": "−0.013* %"},
      {"measurement": "Treatment effect of laquinimod on thalamic fraction", "setting": "subjects with RRMS [1]; 12 months (p=0.018)", "value": "statistically significant"},
      {"measurement": "Treatment effect of laquinimod on thalamic fraction", "setting": "subjects with RRMS [1]; 24 months (p<0.0001)", "value": "statistically significant"},
      {"measurement": "Treatment effect of laquinimod on thalamic fraction change vs placebo", "setting": "subjects with RRMS [1]; patients without T2 thalamic lesions at baseline, month 12 or 24", "value": "not significantly different"},
      {"measurement": "WM NAA/Cr ratio", "setting": "subjects with RRMS [2]", "value": "tended to increase"}
    ]}
  ]
}
